Like-named read-outs stand apart in the source and are kept apart here.
B1: POLY-gp144: SEQ ID NO: 35: phiKZgp144 (SEQ ID NO: 1) with N-terminal peptide stretch KRKKRKKRK (SEQ ID NO: 11) (protein)
chain: MGSKRKKRKKRKKVLRKGDRGDEVCQLQTLLNLCGYDVGKPDGIFGNNTFNQVVKFQKDNCLDSDGIVGKNTWAELFSKYSPPIPYKTIPMPTANKSRAAATPVMNAVENATGVRSQLLLTFASIESAFDYEIKAKTSSATGWFQFLTGTWKTMIENYGMKYGVLTDPTGALRKDPRISALMGAELIKENMNILRPVLKREPTDTDLYLAHFFGPGAARRFLTTGQNELAATHFPKEAQANPSIFYNKDGSPKTIQEVYNLMDGKVAAHRK
modifications: POLY-gp144

Tested on: Burkholderia solanacearum
Type: cell-based
Conditions: 100 μg/ml undialyzed protein, 1 hour, room temperature

Molecule | Reduction [%] (relative inactivation) | Reduction [%] (relative inactivation) (listed as POLYKZ144)
phiKZgp144: SEQ ID NO: 1: unmodified modular endolysin originating from Pseudomonas aeruginosa phage φKZ [reference compound] | 0 | –
B1 | – | 99-99.9%
